Data on 43 compounds can be found in patent publication US8685977B2, “Chemical compounds” (Pfizer Limited, priority 2010, dated 2014).

Molecules are shown by their SMILES. pIC50: −log10 of the molar value.

T1 sequence (Q15858 whole entry): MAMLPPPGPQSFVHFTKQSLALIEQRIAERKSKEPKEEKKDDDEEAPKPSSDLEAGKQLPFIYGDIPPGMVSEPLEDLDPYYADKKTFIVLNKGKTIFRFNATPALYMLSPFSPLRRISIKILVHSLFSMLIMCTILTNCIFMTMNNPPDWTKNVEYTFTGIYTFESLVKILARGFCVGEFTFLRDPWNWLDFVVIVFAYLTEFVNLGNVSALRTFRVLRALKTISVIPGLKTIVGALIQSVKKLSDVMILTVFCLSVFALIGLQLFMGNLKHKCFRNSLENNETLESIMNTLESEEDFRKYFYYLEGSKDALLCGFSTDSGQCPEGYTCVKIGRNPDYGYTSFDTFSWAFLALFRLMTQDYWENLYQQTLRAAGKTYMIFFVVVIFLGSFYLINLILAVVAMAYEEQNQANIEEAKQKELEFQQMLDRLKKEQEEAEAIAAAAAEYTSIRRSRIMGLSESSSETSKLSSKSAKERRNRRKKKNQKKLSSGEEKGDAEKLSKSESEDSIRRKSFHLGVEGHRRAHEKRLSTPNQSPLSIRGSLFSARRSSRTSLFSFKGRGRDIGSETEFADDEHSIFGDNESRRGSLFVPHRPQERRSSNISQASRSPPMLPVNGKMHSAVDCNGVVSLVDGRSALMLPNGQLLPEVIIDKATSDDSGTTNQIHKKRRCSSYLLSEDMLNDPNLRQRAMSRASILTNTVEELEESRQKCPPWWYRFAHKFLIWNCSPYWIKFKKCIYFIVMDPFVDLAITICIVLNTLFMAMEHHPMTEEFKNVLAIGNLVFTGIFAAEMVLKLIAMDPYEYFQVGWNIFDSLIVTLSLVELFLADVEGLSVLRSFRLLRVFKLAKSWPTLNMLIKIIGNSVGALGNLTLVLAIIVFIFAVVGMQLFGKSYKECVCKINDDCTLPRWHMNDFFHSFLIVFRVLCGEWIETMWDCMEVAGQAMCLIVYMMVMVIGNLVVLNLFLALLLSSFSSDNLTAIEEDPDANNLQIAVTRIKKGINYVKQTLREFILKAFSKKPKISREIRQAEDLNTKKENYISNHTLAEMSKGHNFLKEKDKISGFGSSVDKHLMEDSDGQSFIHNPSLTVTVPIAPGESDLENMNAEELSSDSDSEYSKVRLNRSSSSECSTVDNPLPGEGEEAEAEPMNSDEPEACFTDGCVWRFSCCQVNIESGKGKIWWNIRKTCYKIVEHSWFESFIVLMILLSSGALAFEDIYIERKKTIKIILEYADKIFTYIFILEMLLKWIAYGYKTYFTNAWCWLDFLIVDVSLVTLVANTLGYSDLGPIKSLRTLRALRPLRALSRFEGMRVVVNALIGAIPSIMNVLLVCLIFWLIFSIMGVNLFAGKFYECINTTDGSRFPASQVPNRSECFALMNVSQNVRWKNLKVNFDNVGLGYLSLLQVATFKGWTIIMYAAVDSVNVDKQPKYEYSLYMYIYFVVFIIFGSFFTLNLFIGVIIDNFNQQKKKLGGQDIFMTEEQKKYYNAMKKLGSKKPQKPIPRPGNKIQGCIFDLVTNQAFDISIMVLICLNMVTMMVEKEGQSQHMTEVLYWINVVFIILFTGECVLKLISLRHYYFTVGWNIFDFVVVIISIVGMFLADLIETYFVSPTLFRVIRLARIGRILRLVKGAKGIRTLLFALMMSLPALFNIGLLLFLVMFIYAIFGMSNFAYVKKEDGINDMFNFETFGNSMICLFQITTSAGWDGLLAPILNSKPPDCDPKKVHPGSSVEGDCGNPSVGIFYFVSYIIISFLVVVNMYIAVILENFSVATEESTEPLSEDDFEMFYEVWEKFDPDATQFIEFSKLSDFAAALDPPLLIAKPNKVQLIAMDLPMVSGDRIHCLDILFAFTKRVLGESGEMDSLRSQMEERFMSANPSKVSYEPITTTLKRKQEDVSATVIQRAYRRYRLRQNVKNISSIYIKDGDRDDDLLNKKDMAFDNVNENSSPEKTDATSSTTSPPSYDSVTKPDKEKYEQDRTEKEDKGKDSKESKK

The test addresses T1, Nav1.7 (or SCN9A) channel (Homo sapiens, UniProt Q15858).
T1 construct: expressed in transfected cells
The experiment in a line: Nav1.7 PatchXpress 7000 automated electrophysiology assay (HEK cells stably expressing hSCN9A). It counts as cell-based. Particulars: voltage-clamped at V1/2 of inactivation, read-out: Nav1.7 EIC50. The procedure, abridged:
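Automated whole-cell clamp (PatchXpress) of HEK cells stably expressing hSCN9A, at 22-24 °C, in extracellular buffer at pH 7.4. Cells were held at the measured V1/2 of inactivation, then stepped to 0 mV for 20 ms. Single-concentration % inhibition gave EIC50 = concentration × (100 − %inhibition)/%inhibition, excluding <20% or >80%.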
In the case of `Cc1cc(C#N)cc(C)c1Oc1cc(F)c(C(=O)NS(C)(=O)=O)cc1F` [Example 132, 4-(4-cyano-2,6-dimethylphenoxy)-2,5-difluoro-N-(methylsulfonyl)benzamide], the pIC50 was below 5.52.
Under `Cc1cc(C(=O)NS(C)(=O)=O)ccc1Oc1ccc(F)cc1` [Example 237, 4-(4-fluorophenoxy)-3-methyl-N-(methylsulfonyl)benzamide] stands 5.60; under `COc1cc(C(F)(F)F)ccc1Oc1cc(F)c(C(=O)NS(C)(=O)=O)cc1F` [Example 74, 2,5-difluoro-4-(2-methoxy-4-(trifluoromethyl)phenoxy)-N-(methylsulfonyl)benzamide], below 6.00.
To `CS(=O)(=O)NC(=O)c1cc(F)c(Oc2ccc(F)cc2)cc1F` [Example 131, 2,5-difluoro-4-(4-fluorophenoxy)-N-(methylsulfonyl)benzamide] belongs 5.42.
Under `CS(=O)(=O)NC(=O)c1ccc(Oc2cccc(C(F)(F)F)c2)c(Cl)c1` [Example 266, 3-chloro-N-(methylsulfonyl)-4-[3-(trifluoromethyl)phenoxy]benzamide] stands 6.57; under `CS(=O)(=O)NC(=O)c1ccc(Oc2ccc(Cl)cc2Cl)cc1` [Example 38, 4-(2,4-dichlorophenoxy)-N-(methylsulfonyl)benzamide], below 5.00.
With `CS(=O)(=O)NC(=O)c1ccc(Oc2ccc3ccccc3c2)c(Cl)c1` [Example 246, 3-chloro-N-(methylsulfonyl)-4-(2-naphthyloxy)benzamide], the pIC50 is 6.31.
Regarding `CS(=O)(=O)NC(=O)c1ccc(Cc2ccc(Cl)c(Cl)c2)cc1` [Example 315, 4-(3,4-Dichlorobenzyl)-N-(methylsulfonyl)benzamide], the pIC50 was 5.82.
Under `CS(=O)(=O)NC(=O)c1ccc(Oc2cccc(OC(F)(F)F)c2)cc1` [Example 30, N-(methylsulfonyl)-4-[3-(trifluoromethoxy)phenoxy]benzamide] stands 6.12; under `Cc1cc(Oc2ccc(C(=O)NS(C)(=O)=O)cc2F)ccc1F` [Example 218, 3-fluoro-4-(4-fluoro-3-methylphenoxy)-N-(methylsulfonyl)benzamide], 5.55.
Take `CS(=O)(=O)NC(=O)c1cc(Cl)c(Oc2ccc(C#N)cc2)cc1F` [Example 286, 5-chloro-4-(4-cyanophenoxy)-2-fluoro-N-(methylsulfonyl)benzamide]: the pIC50 is 5.47.
To `Cc1cc(Cl)ccc1Oc1cc(F)c(C(=O)NS(C)(=O)=O)cc1F` [Example 102, 4-(4-chloro-2-methylphenoxy)-2,5-difluoro-N-(methylsulfonyl)benzamide] belongs 5.43; to `CS(=O)(=O)NC(=O)c1cc(F)c(Oc2cc(F)ccc2F)cc1F` [Example 89, 4-(2,5-difluorophenoxy)-2,5-difluoro-N-(methylsulfonyl)benzamide], below 5.52.
Under `CS(=O)(=O)NC(=O)c1ccc(Oc2ccc(Cl)c(Cl)c2)c(C#N)c1` [Example 29, 3-cyano-4-(3,4-dichlorophenoxy)-N-(methylsulfonyl)benzamide] stands 6.02; under `CS(=O)(=O)NC(=O)c1cc(F)c(Oc2cccc(Cl)c2Cl)cc1F` [Example 87, 4-(2,3-dichlorophenoxy)-2,5-difluoro-N-(methylsulfonyl)benzamide], 5.16.
To `COc1c(C(=O)NS(C)(=O)=O)ccc(Oc2ccc(Cl)c(Cl)c2)c1F` [Example 234, 4-(3,4-dichlorophenoxy)-3-fluoro-2-methoxy-N-(methylsulfonyl)benzamide] belongs 6.07.
For the compound `Cc1cc(F)ccc1Oc1cc(F)c(C(=O)NS(C)(=O)=O)cc1F` [Example 154, 2,5-difluoro-4-(4-fluoro-2-methylphenoxy)-N-(methylsulfonyl)benzamide], the pIC50 was below 5.52.
Under `CS(=O)(=O)NC(=O)c1ccc(Oc2ccc(C#N)c(C(F)(F)F)c2)cc1` [Example 310, 4-[4-cyano-3-(trifluoromethyl)phenoxy]-N-(methylsulfonyl)benzamide] stands 5.48; under `CS(=O)(=O)NC(=O)c1cc(F)c(Oc2ccc(Cl)c(C(F)(F)F)c2)cc1F` [Example 75, 4-(4-chloro-3-(trifluoromethyl)phenoxy)-2,5-difluoro-N-(methylsulfonyl)benzamide], 6.35.
Under `Cc1ccc(F)c(Oc2cc(F)c(C(=O)NS(C)(=O)=O)cc2F)c1` [Example 122, 2,5-difluoro-4-(2-fluoro-5-methylphenoxy)-N-(methylsulfonyl)benzamide] stands 5.36.
To `CS(=O)(=O)NC(=O)c1ccc(Oc2cc(F)ccc2F)cc1` [Example 166, 4-(2,5-difluorophenoxy)-N-(methylsulfonyl)benzamide] belongs 4.77.
For `CS(=O)(=O)NC(=O)c1cc(Cl)c(Oc2cccc3ccccc23)cc1F` [Example 287, 5-chloro-2-fluoro-N-(methylsulfonyl)-4-(1-naphthyloxy)benzamide], the pIC50 is 5.68.
To `CS(=O)(=O)NC(=O)c1cc(Cl)c(Oc2ccc(Cl)c(Cl)c2)cc1F` [Example 2, 5-Chloro-4-(3,4-dichlorophenoxy)-2-fluoro-N-(methylsulfonyl)benzamide] belongs 7.19; to `CS(=O)(=O)NC(=O)c1cc(Cl)c(Oc2ccc(C(F)(F)F)cc2-c2ccnnc2)cc1F` [Example 313, 5-chloro-2-fluoro-N-(methylsulfonyl)-4-[2-pyridazin-4-yl-4-(trifluoromethyl)phenoxy]benzamide], 5.00; to `CS(=O)(=O)NC(=O)c1ccc(Oc2ccc(Cl)c(C(F)(F)F)c2)c(Cl)c1F` [Example 320, 3-chloro-4-(4-chloro-3-(trifluoromethyl)phenoxy)-2-fluoro-N-(methylsulfonyl)benzamide], 5.74.
Turning to `CS(=O)(=O)NC(=O)c1ccc(Oc2ccccc2Cl)cc1` [Example 164, 4-(2-chlorophenoxy)-N-(methylsulfonyl)benzamide], the pIC50 is below 5.00.
Take `Cn1nccc1-c1cc(Cl)ccc1Oc1ccc(C(=O)NS(C)(=O)=O)cc1C#N` [Example 303, 4-[4-chloro-2-(1-methyl-1H-pyrazol-5-yl)phenoxy]-3-cyano-N-(methylsulfonyl)benzamide]: the pIC50 was below 5.52.
To `Cc1ccc(Oc2ccc(C(=O)NS(C)(=O)=O)cc2F)cc1` [Example 217, 3-fluoro-4-(4-methylphenoxy)-N-(methylsulfonyl)benzamide] belongs 5.38.
To `Cc1cc(C(=O)NS(C)(=O)=O)ccc1Oc1ccc(Cl)c(Cl)c1` [Example 81, 4-(3,4-dichlorophenoxy)-3-methyl-N-(methylsulfonyl)benzamide] belongs 6.64; to `CS(=O)(=O)NC(=O)c1ccc(Oc2cccc3ccccc23)c(Cl)c1` [Example 258, 3-chloro-N-(methylsulfonyl)-4-(1-naphthyloxy)benzamide], 5.68; to `CS(=O)(=O)NC(=O)c1cc(Cl)c(Oc2cccc(Cl)c2)cc1F` [Example 292, 5-chloro-4-(3-chlorophenoxy)-2-fluoro-N-(methylsulfonyl)benzamide], 6.21.
In the case of `CCOc1cccc(Oc2cc(F)c(C(=O)NS(C)(=O)=O)cc2Cl)c1` [Example 298, 5-chloro-4-(3-ethoxyphenoxy)-2-fluoro-N-(methylsulfonyl)benzamide], the pIC50 was 6.70.
Regarding `COc1cc(Cl)ccc1Oc1cc(F)c(C(=O)NS(C)(=O)=O)cc1F` [Example 47, 4-(4-chloro-2-methoxyphenoxy)-2,5-difluoro-N-(methylsulfonyl)benzamide], the pIC50 is 5.40.
Under `CS(=O)(=O)NC(=O)c1ccc(Oc2ccc(Cl)c(Cl)c2)c(C(F)(F)F)c1` [Example 27, 4-(3,4-dichlorophenoxy)-N-(methylsulfonyl)-3-(trifluoromethyl)benzamide] stands 6.72; under `Cc1cccc(Oc2ccc(C(=O)NS(C)(=O)=O)cc2)c1` [Example 254, 4-(3-methylphenoxy)-N-(methylsulfonyl)benzamide], 5.12.
Under `COc1cc(C(=O)NS(C)(=O)=O)ccc1Oc1ccc(Cl)c(C(F)(F)F)c1` [Example 59, 4-[4-chloro-3-(trifluoromethyl)phenoxy]-3-methoxy-N-(methylsulfonyl)benzamide] stands 5.40; under `COc1cc(Oc2cccc(Cl)c2)ccc1C(=O)NS(C)(=O)=O` [Example 213, 4-(3-chlorophenoxy)-2-methoxy-N-(methylsulfonyl)benzamide], below 5.52; under `CS(=O)(=O)NC(=O)c1cc(Cl)c(Oc2ccccc2C#N)cc1F` [Example 293, 5-chloro-4-(2-cyanophenoxy)-2-fluoro-N-(methylsulfonyl)benzamide], below 5.52.
In the case of `CS(=O)(=O)NC(=O)c1ccc(Sc2cccc(OC(F)(F)F)c2)cc1` [Example 318, N-(Methylsulfonyl)-4-{[3-(trifluoromethoxy)phenyl]sulfanyl}benzamide], the pIC50 was 5.25.
To `CS(=O)(=O)NC(=O)c1cc(F)c(Oc2ccc(F)cc2C2CC2)cc1F` [Example 126, 4-(2-cyclopropyl-4-fluorophenoxy)-2,5-difluoro-N-(methylsulfonyl)benzamide] belongs below 6.00.
To `CCOc1cc(C)ccc1Oc1cc(F)c(C(=O)NS(C)(=O)=O)cc1F` [Example 148, 4-(2-ethoxy-4-methylphenoxy)-2,5-difluoro-N-(methylsulfonyl)benzamide] belongs below 6.00; to `Cc1ccc(C)c(Oc2ccc(C(=O)NS(C)(=O)=O)cc2)c1` [Example 162, 4-(2,5-dimethylphenoxy)-N-(methylsulfonyl)benzamide], 4.55; to `COc1cc(C(=O)NS(C)(=O)=O)ccc1Oc1ccc(Cl)c(Cl)c1` [Example 10, 4-(3,4-dichlorophenoxy)-3-methoxy-N-(methylsulfonyl)benzamide], 6.01.
